Results taken from patent publication US7557116B2, “Substance which exhibits antiviral and antibacterial activity and is based on derivatives of 2,8-dithioxo-1H-pyrano[2,3d 6,5-d′]dipyrimidyne and 10-aza-analogue thereof” (priority 2003, dated 2009).

Assays:
Type in all cases: cell-based
[1] = system: Chlamydia trachomatis D323; experiment: Protection of cell culture from Chlamydia trachomatis (immunofluorescence, cytoplasmatic inclusions)
Source text: The antiviral activity of the claimed compounds were also all tested against the Chlemydia trachomatis. The effects of the claimed compounds on the Chlamydia trachomatis are charted in TABLE 4. A relative strain of Chlamydia trachomatis D323 was used to test the claimed compounds. The strain, derived from a patient with Chlamydia urethritis, comprised a morphology and a physiological activity characteristic of and representative of that type. An infection dose of Chlamydia having a concentration of 1/10^6 cells/ml was introduced into a cell culture. Immunofluorescence (MicroTrack Chlamydia trachomatis Direct Specimen Test) was conducted to determine the significance of the chlamydial cytoplasmatic inclusions (CPI). A CylaMonoScreen was conducted to obtain the chlamydia antigens. The monolayer state and the number of cells with CPI were compared to the control to determine the effects the claimed compounds have on the chlamydia. The number of unchanged cells in 100 visual fields were counted utilizing a special net on a microscopic eyepiece.

Influenza virus A = settings: Influenza virus A; 48 hours at 33-34 C; ineffective when IN less than 1.0
Influenza virus B = settings: Influenza virus B; 72 hours at 33-34 C; ineffective when IN less than 1.0
[2] = system: Human Immunodeficiency Virus Type 1; experiment: Anti-HIV activity: protection of MT4 T-lymphoblastoid cells (IFA); settings: read-out: Level of inhibition of virus reproduction
Procedure: (§1) Activity against the Human immunodeficiency Virus (HIV) was also determined and, more specifically, the compounds antiviral effectiveness in protecting the T-lymphoblastoid cells MT4 from being infected by the virus-containing liquid of HTHIV27 cultures. The cells infected by the virus were analyzed according to the following methods: (1) An indirect immunofluorescence (IFA) with a polyclonal anti-serum was received from an HIV Infected human (the antibody titer in the IFA was 1:1000000) and, (2) A competitive IFA was utilized with monoclonal antibodies (MonAb) to p24 HIV and a polyclonal substrate. A solution of 1:540 was used in the tests. Azidothymidin (AZT) was used as the control.
The results documented in the table shown in TABLE 6 evidence that the compounds tested inhibit the reproduction of the Human Immunodeficiency Virus Type 1.

[3] = system: Human Immunodeficiency Virus; experiment: Anti-HIV activity alone and in combination with azidothymidin in MT4 cells; settings: read-out: Level of inhibition of virus reproduction
Procedure: as §1, with “[…] The methods utilized to analyze the compounds effectiveness were the same” for “Azidothymidin (AZT) was used”, “foregoing methods.” for “control.”

For `O=[N+]([O-])c1ccc(C2c3c(O)nc(=S)[nH]c3Oc3[nH]c(=S)nc(Cl)c32)cc1` (stereo not drawn) [Ib, 4-chlorine-6-hydroxi-5-(4-nitrophenyl)-5,9-dihydro-1H-pyrano[2,3-d: 6,5-d′]dipyrimidine-2,8-dition], the “Percentage of cells' defense from C. trachomatis” value ([1]; compound 30 mg/l) was 60%, the “Percentage of cells' defense from C. trachomatis” value ([1]; compound 100 mg/l) was 80% and the Index of neutralization (Influenza virus A) was 0.5. For the same molecule, the Index of neutralization (Influenza virus B) was 0.5, the inhibition at 5 µg/mL ([2]; Human immunodeficiency virus 1, 5 mg/l) was 70% and the inhibition at 50 µg/mL ([2]; Human immunodeficiency virus 1, 50 mg/l) was 90%. It also gave an inhibition at 100 µg/mL ([2]; Human immunodeficiency virus 1, 100 mg/l) of 100%, an inhibition at 0.5 µg/mL ([3]; Human immunodeficiency virus 1, 0.5 mg/l) of 20% and an inhibition at 5 µg/mL ([3]; Human immunodeficiency virus 1, 5.0 mg/l) of 70%.
